Measurements reported in patent US11773086B2, “Fungal modulators” (TRUSTEES OF BOSTON UNIVERSITY, priority 2020, dated 2023).

Legend:
C. glabrata (BG2) = assay: Azoffluxin dose-response with background fluconazole; format: cell-based, Candida glabrata
Procedure: FIGS. 2A-2E illustrate the above-described screening of the BU-CMD which identified azoffluxin as a fluconazole (FLC) potentiator against C. auris. […] Growth, as determined by optical density at 600 nm (OD600), is plotted in the presence of each CMD compound alone on the y-axis and in combination with FLC on the x-axis. Dotted lines represent 7-median absolute deviations from the median for each condition. […] FIG. 2B depicts the synergistic interactions. […] Growth was measured by the OD600 and normalized to the no drug control (see color bar). The fractional inhibitory concentration index (FICI) was calculated to determine the chemical interaction, with a value below 0.5 indicating synergy. […] FIG. 2D depicts FLC Etest strips in the presence and absence of 50 μM azoffluxin. […]
Compound potency was assessed alone by dose response assays or in combination with another compound by dose-response matrixes in 96-well plates, or 384-well, flat-bottom, microtiter plates (Corning) as previously described. […] Growth was quantified by measuring OD600 and corrected for medium background. All strains were assessed in biological duplicate experiments with technical duplicates. […] For dose-response matrixes fractional inhibitory concentration index at 90% growth inhibition (FICI90) was calculated as previously described. […]

MDR1 (ABCB1) = target: T1, MDR1 (ABCB1) (Homo sapiens, UniProt P08183); assay: Rhodamine 6G accumulation in MDR1-overexpressing HEK293 cells (flow cytometry); format: cell-based, mammalian
T1 construct: expressed in transfected cells; host or cells: HEK293
T1 sequence (P08183 whole entry): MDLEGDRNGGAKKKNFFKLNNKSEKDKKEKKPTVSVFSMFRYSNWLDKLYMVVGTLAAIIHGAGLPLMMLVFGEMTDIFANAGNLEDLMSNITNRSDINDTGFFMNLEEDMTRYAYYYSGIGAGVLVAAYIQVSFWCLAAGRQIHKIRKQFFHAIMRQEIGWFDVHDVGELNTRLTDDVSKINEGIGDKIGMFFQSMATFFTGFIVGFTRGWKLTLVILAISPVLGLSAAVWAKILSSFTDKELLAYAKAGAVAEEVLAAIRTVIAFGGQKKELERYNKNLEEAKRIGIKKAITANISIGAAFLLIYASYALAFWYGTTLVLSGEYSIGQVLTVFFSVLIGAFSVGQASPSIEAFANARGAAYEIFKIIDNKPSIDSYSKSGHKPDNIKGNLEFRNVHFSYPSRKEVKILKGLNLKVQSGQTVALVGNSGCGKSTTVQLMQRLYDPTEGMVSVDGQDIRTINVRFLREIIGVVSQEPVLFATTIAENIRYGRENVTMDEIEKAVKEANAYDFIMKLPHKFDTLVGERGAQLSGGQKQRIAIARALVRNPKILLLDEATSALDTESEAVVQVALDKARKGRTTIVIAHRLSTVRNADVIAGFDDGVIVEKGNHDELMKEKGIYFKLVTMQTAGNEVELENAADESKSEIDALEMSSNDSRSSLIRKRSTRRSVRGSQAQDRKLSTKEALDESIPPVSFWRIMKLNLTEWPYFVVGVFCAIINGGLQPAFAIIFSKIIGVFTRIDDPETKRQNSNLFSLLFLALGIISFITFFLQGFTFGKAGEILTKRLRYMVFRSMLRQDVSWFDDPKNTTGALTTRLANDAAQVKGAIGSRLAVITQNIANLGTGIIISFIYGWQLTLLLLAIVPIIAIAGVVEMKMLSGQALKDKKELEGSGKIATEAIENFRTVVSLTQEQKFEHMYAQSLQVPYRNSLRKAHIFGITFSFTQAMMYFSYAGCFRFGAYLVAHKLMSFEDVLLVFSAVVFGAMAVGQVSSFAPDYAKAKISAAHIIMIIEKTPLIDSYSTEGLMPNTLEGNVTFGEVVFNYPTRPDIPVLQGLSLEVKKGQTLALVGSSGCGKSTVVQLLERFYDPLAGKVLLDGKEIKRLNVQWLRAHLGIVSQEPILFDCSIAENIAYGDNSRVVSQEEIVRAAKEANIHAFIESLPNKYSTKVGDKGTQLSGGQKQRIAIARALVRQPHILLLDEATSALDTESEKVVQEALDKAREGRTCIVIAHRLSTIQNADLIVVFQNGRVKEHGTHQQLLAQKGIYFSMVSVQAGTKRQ
Procedure: P-gp overexpressing HEK293 cell lines were used to determine if azoffluxin treatment leads to a greater accumulation of fluorescent substrates (MFI) as determined by flow cytometry.
MDR1 (ABCB1) and MRP1 (ABCC1) was assessed using the fluorescent dyes rhodamine 6G (0.5 μg/mL) and Calcein AM (2.5 μg/mL), for each pump respectively, and the known inhibitor controls tariquidar (60 nM) and MK571 (30 μM) for each pump respectively. Listed data is shown by FIG. 12E (R6G) and FIG. 12F (Cal).

C. auris B11801 = assay: Kidney fungal burden (CFU) in infected mice; format: in vivo; conditions: azoffluxin 10 mg/Kg SC four-times daily + fluconazole 32 mg/Kg IP twice daily, four days
Procedure: FIG. 10A depicts mammalian embryonic kidney (293T) cells expressing luciferase used to quantify mammalian cell growth in co-culture. Mammalian cells were seeded in 384-well plates in DMEM medium at 5×10^5 cells/mL overnight. After 24 hours the indicated concentration of compound (⋅ indicates combo treatment concentrations) was added along with 2.5×10^3 cells/mL of C. auris. Co-cultures were incubated for 48 hours at 37° C. and then the luminescence was measured as an output of mammalian cell growth. […] FIG. 10C depicts checkerboard assays performed as described in FIG. 2B with C. auris Clade IV isolate B11801. Relative growth was measured after 24 hours using OD600 and normalized to no-drug control wells (see color bar). The FICI calculated for each checkerboard is shown in the top right of each plot, with values<0.5 indicating synergy. […] Input is the CFU recovered in an aliquot of the fungal suspension use to inoculate mice. […] Fluconazole was administered at 32 mg/Kg IP twice daily and azoffluxin at 10 mg/Kg SC four-times daily. Error bars; SD, n=3 mice/treatment group.

[1] = system: HEK293 cancer cells that overexpress the efflux pump MDR1; assay: Doxorubicin cytotoxicity with azoffluxin; format: cell-based; conditions: dose response and single concentration
Description: Dose response (FIG. 23A) and single concentration (FIG. 23B).

[2] = system: FLC-resistant Candida auris; assay: Checkerboard (dose-response matrix) with fluconazole, FICI; format: cell-based
Procedure: Generally, the synergy is measured by determining the fractional inhibitory concentration (FIC) value of the combination. […] FIC values for both agents in a particular square/well are calculated in this way followed by determination of the FIC index (sum of the FICs of each agent in the particular square/well).
Compound potency was assessed alone by dose response assays or in combination with another compound by dose-response matrixes in 96-well plates, or 384-well, flat-bottom, microtiter plates (Corning) as previously described. Plates were incubated at 30° C. for the indicated time period. Growth was quantified by measuring OD600 and corrected for medium background. All strains were assessed in biological duplicate experiments with technical duplicates. Growth was normalized to untreated controls and plotted as a heat map using Java TreeView 1.1.6r4. For dose-response matrixes fractional inhibitory concentration index at 90% growth inhibition (FICI90) was calculated as previously described. The fluconazole Etest susceptibility assay was performed as previously described. Briefly, 200 μL of 5×10^6 cells/mL were plated on YPD agar (1%) plates with either with 50 μM azoffluxin or containing DMSO.

C=C(C)C[C@@H](O)COc1cc2c(cc1C1(c3cc4c(cc3OC[C@H](O)CC(=C)C)OCO4)C(=O)Nc3cc(F)ccc31)OCO2 [CMLD012336]
enhancement of fluconazole efficacy (C. glabrata (BG2); C. glabrata, despite increasing Nile red): did not enhance the efficacy of fluconazole | enhancement of fluconazole activity (C. glabrata (BG2); fluconazole-sensitive laboratory strain BG2, background FLC 0.25 μg/mL): did not enhance the activity of fluconazole | dye accumulation in control cDNA cells (MDR1 (ABCB1)): no effect | antifungal activity of fluconazole in mice (kidney CFU) (C. auris B11801): markedly increases the antifungal activity of fluconazole | cytotoxicity of doxorubicin [1]: enhances cytotoxicity of doxorubicin | interaction with fluconazole ([2]; Clade III isolate B12037 lacking Erg11 V125A/F126L and Mrr1 N647T): potent synergistic interaction | fractional inhibitory concentration index (FICI) ([2]; combination with fluconazole, C. auris Ci6684 (Erg11 Y132F), <0.5 = synergy): 0.25 | FICI ([2]; fractional inhibitory concentration index for enhancement of FLC activity in FLC-resistant Candida auris, <0.5 strong synergy, 2 = no synergy): 0.130 | potentiation of fluconazole across C. auris clades ([2]; isolates of the four major clades, Clade III the exception): potentiated fluconazole in multiple isolates from three of the four major clades
